Measured values reported in PMC6915135, “Simultaneous Quantification of Brigatinib and Brigatinib-Analog in Rat Plasma and Brain Homogenate by LC-MS/MS: Application to Comparative Pharmacokinetic and Brain Distribution Studies” (International Journal of Analytical Chemistry, 2019).

Tests used:
[1] = Pharmacokinetic study in rats after single oral administration (plasma, LC-MS/MS); type: in vivo, male Sprague Dawley rats; conditions: 5 mg/kg single oral, male SD rats, mean ± SD; for Vd (apparent volume of distribution) / AUC(0-t) / Cmax / MRT / Tmax / half-life: n = 6; for AUC(0-t) / Cmax / MRT / Tmax / half-life / CL/F: Sprague Dawley, rat; for CL/F: n = 6, read-out: CL (CLz/F)
Method: (§1) Seventy-two male Sprague Dawley rats weighing 180–220 g (7-8 weeks old, Certificate no. SCXK (Shandong) 2014-0007) were supplied by Shandong Laboratory Animal Center, Shandong First Medical University & Shandong Academy of Medical Sciences. All rats were kept in plastic cages with 12 h day/night cycle under controlled temperature (about 23–25°C) and fed with standard laboratory rat diet and water ad libitum. All the animal welfare and experimental procedures were approved by the Animal Ethics Committee at the Institute of Materia Medica, Shandong First Medical University & Shandong Academy of Medical Sciences (Jinan, China) and strictly in accordance with the guide for the care and use of laboratory animals (National Research Council of USA, 1996).
For the pharmacokinetic studies, after fasting with free access to water for at least 12 h, twelve rats were randomly divided into two groups (n = 6). The brigatinib and brigatinib-analog were both dissolved in ethanol-0.5% methylcellulose (1 : 19) for dosing. The two group rats were intragastrically administered with brigatinib and brigatinib-analog at the same dose of 5 mg/kg, respectively.
Blood samples, about 100 μL of each, were placed in heparinized Eppendorf tubes predose and at 5, 15, 30, 60, 120, 180, 240, 300, 360, 480, 720, and 1,440 min postdose from the jugular vein of rats. The blood samples were immediately centrifuged at 3,500 rpm for 15 min at 4°C, and the plasma samples were transferred carefully from each collection and stored at −20°C until analysis.
(§2) Experimental data were expressed as mean ± standard deviation (SD). Drug and Statistics 2.0 (DAS 2.0) software package (Mathematical Pharmacology Professional Committee of China, Shanghai, China) was used for estimating pharmacokinetic and brain distribution parameters by a noncompartmental method. Statistical analyses were performed with statistical software IBM SPSS Statistics 20.0 (IBM Corporation, Armonk, NY, USA). Differences between two groups were evaluated by the t-test. A value of p < 0.05 was considered as statistically significant.

[2] = Brain distribution study in rats after single oral administration (brain homogenate, LC-MS/MS); type: in vivo, male Sprague Dawley rats; conditions: for blood-brain barrier penetration / Kp: 5 mg/kg oral, rats; for Cmax / MRT / Tmax / half-life / Kp: Sprague Dawley, rat; for Cmax / MRT / Tmax / half-life / AUC(0–t): brain, 5 mg/kg single oral, male SD rats, mean ± SD, n = 6; for Kp: male, average AUC(0–t) brain to plasma, 1 g brain taken as 1 mL plasma, read-out: ratio of AUCbrain/AUCplasma
Method: as §1
For the brain distribution studies, the remaining sixty rats were randomly divided into ten groups (n = 6, per group). The distributions of brigatinib and brigatinib-analog in the rat brain were also investigated at the dose of 5 mg/kg after single oral administration to rats. The whole brain was excised immediately at 5, 60, 240, 480, and 1,440 min postdose, thoroughly rinsed with 0.9% saline solution, and wiped with a filter paper. Each brain sample was weighed accurately and homogenized in double distilled water (1 : 5, w/v) by using a tissue homogenizer (IKA, Germany) and frozen at −20°C until analysis.
as §2

[3] = tested on: the triple mutation; parameters: method as in PMID 28287083, PMID 27780853; conditions: read-out: IC50 against the triple mutation; cited from earlier work
[4] = Stability of QC samples in rat plasma under various storage conditions; type: in vitro ADME; conditions: for Stability under the storage conditions investigated: rat plasma and brain homogenate QC samples, 6 h ambient, −20°C 10 d, three freeze-thaw cycles, 24 h at 4°C autosampler; for Measured conc. after ambient temperature for 6 h / Measured conc. after autosampler at 4°C for 24 h / Measured conc. after three freeze-thaw cycles / Measured conc. after −20°C for 10 d: rat plasma, n = 6
Method: (§3) The stability of brigatinib and brigatinib-analog was evaluated by analysis of low and high concentration levels of QC samples under different conditions (n = 6). The temperature and timing conditions were as follows: 6 h at ambient temperature, stored at −20°C for 10 d, three freeze-thaw cycles, and 24 h at 4°C in an autosampler. The measured concentrations were all within acceptable limits (±15% of the nominal concentrations) during the entire validation. […] Carryover was evaluated by determining the peak areas for brigatinib and brigatinib-analog by injecting blank matrix samples sequentially after the highest calibration standard sample injection. Furthermore, no carryover effect was obtained in this study.

[5] = Stability of QC samples in rat brain homogenate under various storage conditions; type: in vitro ADME; conditions: n = 6
Method: as §3

| SMILES | Vd (apparent volume of distribution) [1] | AUC(0-t) [1] | Cmax [1] | MRT [1] | Tmax [1] | half-life [1] | CL/F [1] | blood-brain barrier penetration [2] | Cmax [2] | MRT [2] | Tmax [2] | half-life [2] | AUC(0–t) [2] | Kp [2] | IC50 [3] | Stability under the storage conditions investigated [4] | Measured conc. after ambient temperature for 6 h ([4]; spiked 2.0 ng/mL) | Measured conc. after autosampler at 4°C for 24 h ([4]; spiked 2.0 ng/mL) | Measured conc. after three freeze-thaw cycles ([4]; spiked 2.0 ng/mL) | Measured conc. after −20°C for 10 d ([4]; spiked 2.0 ng/mL) | also measured |
| --- | --- | --- | --- | --- | --- | --- | --- | --- | --- | --- | --- | --- | --- | --- | --- | --- | --- | --- | --- | --- | --- |
| COc1cc(N2CCC(N(C)C)CC2)ccc1Nc1ncc(Cl)c(Nc2ccccc2P(C)(C)=O)n1 [Brigatinib-analog] | 3.43 ± 0.96 L/kg | 4370 ng·h/mL | 734 ± 83.1 ng/mL | 5.48 h | 4.33 h | 2.01 ± 0.496 h | 21 ± 6 mL/min/kg | could both penetrate the blood-brain barrier | 45.8 ± 11.8 ng/g | 6.32 h | 4 h | 4.27 ± 0.667 h | 23196.08 ± 4932.95^∗ ng/g·min | 0.088 | < 100 nM | stable | 2.03 ± 0.11 ng/mL | 1.89 ± 0.12 ng/mL | 2.01 ± 0.09 ng/mL | 1.95 ± 0.12 ng/mL | Measured conc. after ambient temperature for 6 h ([4]; spiked 1600 ng/mL): 1638.54 ± 97.76 ng/mL; Measured conc. after autosampler at 4°C for 24 h ([4]; spiked 1600 ng/mL): 1582.61 ± 101.88 ng/mL; Measured conc. after three freeze-thaw cycles ([4]; spiked 1600 ng/mL): 1578.36 ± 125.20 ng/mL; Measured conc. after −20°C for 10 d ([4]; spiked 1600 ng/mL): 1705.49 ± 109.83 ng/mL; Measured conc. after ambient temperature for 6 h ([5]; spiked 1.0 ng/mL): 1.04 ± 0.05 ng/mL; Measured conc. after autosampler at 4°C for 24 h ([5]; spiked 1.0 ng/mL): 0.97 ± 0.06 ng/mL; Measured conc. after three freeze-thaw cycles ([5]; spiked 1.0 ng/mL): 0.98 ± 0.07 ng/mL; Measured conc. after −20°C for 10 d ([5]; spiked 1.0 ng/mL): 1.07 ± 0.11 ng/mL; Measured conc. after ambient temperature for 6 h ([5]; spiked 800 ng/mL): 828.64 ± 66.54 ng/mL; Measured conc. after autosampler at 4°C for 24 h ([5]; spiked 800 ng/mL): 783.28 ± 32.39 ng/mL; Measured conc. after three freeze-thaw cycles ([5]; spiked 800 ng/mL): 833.68 ± 56.59 ng/mL; Measured conc. after −20°C for 10 d ([5]; spiked 800 ng/mL): 846.09 ± 53.83 ng/mL |
| COc1cc(N2CCC(N3CCN(C)CC3)CC2)ccc1Nc1ncc(Cl)c(Nc2ccccc2P(C)(C)=O)n1 [Brigatinib] | 5.66 ± 1.94 L/kg | 4360 ng·h/mL | 538 ± 186 ng/mL | 6.73 h | 4.33 h | 3.16 ± 0.343 h | 22 ± 10 mL/min/kg | could both penetrate the blood-brain barrier | 68.9 ± 21.6 ng/g | 7.48 h | 5.5 h | 5.32 ± 1.95 h | 58255.81 ± 13725.10 ng·min/g | 0.223 | < 100 nM | stable | 2.10 ± 0.12 ng/mL | 1.90 ± 0.10 ng/mL | 1.94 ± 0.09 ng/mL | 2.05 ± 0.17 ng/mL | Measured conc. after ambient temperature for 6 h ([4]; spiked 1600 ng/mL): 1585.06 ± 98.31 ng/mL; Measured conc. after autosampler at 4°C for 24 h ([4]; spiked 1600 ng/mL): 1645.17 ± 118.52 ng/mL; Measured conc. after three freeze-thaw cycles ([4]; spiked 1600 ng/mL): 1678.34 ± 95.87 ng/mL; Measured conc. after −20°C for 10 d ([4]; spiked 1600 ng/mL): 1719.73 ± 107.09 ng/mL; Measured conc. after ambient temperature for 6 h ([5]; spiked 1.0 ng/mL): 1.06 ± 0.08 ng/mL; Measured conc. after autosampler at 4°C for 24 h ([5]; spiked 1.0 ng/mL): 0.96 ± 0.05 ng/mL; Measured conc. after three freeze-thaw cycles ([5]; spiked 1.0 ng/mL): 1.02 ± 0.06 ng/mL; Measured conc. after −20°C for 10 d ([5]; spiked 1.0 ng/mL): 0.97 ± 0.06 ng/mL; Measured conc. after ambient temperature for 6 h ([5]; spiked 800 ng/mL): 788.85 ± 69.25 ng/mL; Measured conc. after autosampler at 4°C for 24 h ([5]; spiked 800 ng/mL): 813.16 ± 72.23 ng/mL; Measured conc. after three freeze-thaw cycles ([5]; spiked 800 ng/mL): 847.44 ± 57.65 ng/mL; Measured conc. after −20°C for 10 d ([5]; spiked 800 ng/mL): 760.29 ± 48.33 ng/mL |
